Test results: US20170057948A1, “INDOLE-LIKE TRK RECEPTOR ANTAGONISTS” (Tallinn University of Technology, priority 2015, published 2017)
Values after ≈ are worked out from the molar mass of the structure shown.

Tests used:
TrkA [1] = biological target: T1, TrkA (Homo sapiens, UniProt P04629); test: In vitro kinase profiling (48 kinases), TrkA; type: biochemical; details: 1 μM concentration; read-out: residual activity of TrkA
T1 construct: purchased ProQinase, Germany (custom-ordered assay service)
T1 sequence (P04629 33-796): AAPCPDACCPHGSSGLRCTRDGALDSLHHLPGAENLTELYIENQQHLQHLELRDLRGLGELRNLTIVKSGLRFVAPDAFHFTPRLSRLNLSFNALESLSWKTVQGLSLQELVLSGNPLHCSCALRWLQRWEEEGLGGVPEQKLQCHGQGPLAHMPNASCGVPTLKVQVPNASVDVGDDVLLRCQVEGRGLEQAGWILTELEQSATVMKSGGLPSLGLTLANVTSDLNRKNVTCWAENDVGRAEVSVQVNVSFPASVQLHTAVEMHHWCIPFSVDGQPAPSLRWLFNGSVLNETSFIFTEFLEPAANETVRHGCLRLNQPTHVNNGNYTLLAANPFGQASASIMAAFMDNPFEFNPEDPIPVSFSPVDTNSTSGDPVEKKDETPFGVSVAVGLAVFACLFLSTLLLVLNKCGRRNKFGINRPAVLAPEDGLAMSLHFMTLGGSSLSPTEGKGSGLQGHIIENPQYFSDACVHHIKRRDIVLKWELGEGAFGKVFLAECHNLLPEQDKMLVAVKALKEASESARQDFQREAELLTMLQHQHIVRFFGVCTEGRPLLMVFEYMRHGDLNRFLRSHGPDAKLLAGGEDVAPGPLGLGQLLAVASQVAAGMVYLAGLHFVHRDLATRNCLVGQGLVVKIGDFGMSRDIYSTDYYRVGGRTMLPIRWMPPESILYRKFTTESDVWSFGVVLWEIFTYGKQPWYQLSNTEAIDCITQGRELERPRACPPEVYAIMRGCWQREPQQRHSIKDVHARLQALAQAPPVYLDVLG
Experimental: According to the results, at concentration of 100 nM all compounds were relatively TrkA specific inhibiting only up to 3 off-target kinases, while reducing the activity of TrkA by at least 82% at 100 nM concentration and 94% at 1 μM concentration. At 100 nM, 2a25 was able to inhibit only TrkA. […] Kinases that were inhibited by most of the compounds at 1 concentration included Aurora-B, CAMKK2, CHK2, IRAK4, LCK, and MAP3K11.
(§1) The biochemical kinase assays were custom ordered from ProQinase, Germany.

[2] = system: cortical neurons, PC-12 cells or dividing MG87/TRKB/luc/Elk1 cells; test: Toxic or adverse effect on cells (summary statement); type: cell-based
Description: The Trk antagonists of the invention share a similar indole-like basic structure; however, substituent substitution yielded compounds with markedly high activity and specificity for the Trk family.

Syk [3] = biological target: T2, Syk (Homo sapiens, UniProt P43405); details: cited from earlier work
TrkA [4] = biological target: T1, TrkA; details: 1 μM concentration; cited from earlier work
Syk [5] = biological target: T2, Syk; test: In vitro kinase profiling (48 kinases), Syk; type: biochemical; design: Aurora-B, CaMMK2, Chk2, Irak4, Lck, Map3K11, Syn aa1-635, TrkA, TrkB, and TrkC; purchased ProQinase, Germany (custom-ordered assay service); details: for inhibition of Syk: own experiments
Description: as §1

TrkA [6] = biological target: T3, TrkA (Rattus norvegicus, UniProt P35739); test: PC-12/luc/Elk1 luciferase reporter cellular assay (NGF-induced); type: cell-based; details: 50 ng/ml NGF, 18 h treatment
T3 construct: endogenous in cells; host or cells: PC-12 and PC-12/luc/Elk1 (rat pheochromocytoma)
T3 sequence (P35739 33-799): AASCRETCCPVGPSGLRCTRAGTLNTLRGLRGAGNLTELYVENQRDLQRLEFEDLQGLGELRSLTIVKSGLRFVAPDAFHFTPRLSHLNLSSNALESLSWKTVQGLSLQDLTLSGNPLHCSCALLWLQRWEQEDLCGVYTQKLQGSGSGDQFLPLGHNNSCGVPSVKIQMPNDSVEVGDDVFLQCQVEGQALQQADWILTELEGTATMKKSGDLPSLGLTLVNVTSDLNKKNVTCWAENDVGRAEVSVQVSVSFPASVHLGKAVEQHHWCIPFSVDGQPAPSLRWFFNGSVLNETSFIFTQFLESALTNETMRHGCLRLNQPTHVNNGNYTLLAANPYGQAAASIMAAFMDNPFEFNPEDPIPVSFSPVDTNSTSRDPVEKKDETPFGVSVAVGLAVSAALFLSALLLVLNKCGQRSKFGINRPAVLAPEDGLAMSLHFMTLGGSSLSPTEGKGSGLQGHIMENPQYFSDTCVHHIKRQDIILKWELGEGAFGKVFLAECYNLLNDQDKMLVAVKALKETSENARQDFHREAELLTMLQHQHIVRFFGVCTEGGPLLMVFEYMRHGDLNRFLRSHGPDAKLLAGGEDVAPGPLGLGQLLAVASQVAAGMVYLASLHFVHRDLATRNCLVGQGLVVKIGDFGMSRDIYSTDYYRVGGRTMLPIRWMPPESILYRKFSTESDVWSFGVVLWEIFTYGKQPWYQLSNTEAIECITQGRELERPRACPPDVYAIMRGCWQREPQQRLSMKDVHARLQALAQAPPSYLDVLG
Description: A stably transfected cell line was generated in order to assess the capability of the compounds to inhibit the activation of TrkA receptor in the natural (neural) cellular context. Once the endogenic TrkA of the PC-12/luc/Elk1 cell line becomes activated, the downstream events result in phosphorylation of Elk1, the GAL4-dbd fused to Elk1 binds then to GAL4 UAS and activates the transcription of luciferase (FIG. 3). To address the suitability of the generated system for screening application, the Z′-factor was determined (see also Examples section). […] Z′-factor value above 0.5 is considered an indication of a high quality assay. The timeframe of 18 hours with the highest Z′-factor value was chosen for subsequent experiments.
PC-12 (rat adrenal pheochromocytoma cell line) cells were transfected using LIPOD293 DNA In Vitro Transfection Reagent (SignaGen) with 1 μg of pFA2-Elk1 plasmid and 4 μg of pFR-LUC plasmid (PathDetect Elk1 trans-Reporting System; Agilent Technologies). pFA2-Elk1 plasmid codes for the fusion protein consisting of GAL4-dbd (DNA-binding domain) followed by Elk1 transcription factor and contains Geneticin G418 resistance gene neomycin. pFR-LUC plasmid codes for GAL4 upstream activation sequence (UAS) followed by luciferase reporter gene. A puromycin resistance gene was introduced to the pFR-LUC plasmid using Bst1107I and NdeI restrictases from pGL4.22[luc2CP/Puro] (Promega). The selection of transfected cells was initiated two days after the transfection with addition of 300 μg/ml of G418 (Sigma) and 0.75 μg/ml of puromycin (Sigma-Aldrich) and continued for about one and a half months until distinct cell colonies could be picked, plated, and tested for responsiveness to NGF. Generated cell line, called hereafter PC-12/luc/Elk1, was maintained in Dulbecco's Modified Eagle's Medium (DMEM; PAA) containing 6% fetal bovine serum (FBS; PAA), 6% horse serum (HS; PAA), 1% penicillin/streptomycin (PS; Gibco), 300 μg/ml of Geneticin G418, and 0.75 μg/ml of puromycin. […] PC-12 cells were maintained in DMEM containing 6% FBS, 6% HS, and 1% PS.
PC-12/luc/Elk1 cells were plated one day before the assay on 96 well plates in 25,000 cells per well. […] The plate was subjected to 10 minutes of shaking and, thereafter, analyzed using TECAN plate reader. […]
The IC50's of the compounds were determined using cellular and biochemical assays. In the cellular assays, using PC-12/luc/Elk1 and MG87/TrkB/luc/Elk1 cells, the compounds were assessed in gradual dilutions of the compounds in triplets together with NGF or BDNF (Peprotech), respectively. TrkA inhibition was determined using same methodology as for measuring the Z′-factor with 18 h treatment time. […]

Syk [7] = biological target: T2, Syk; details: 1 μM concentration; cited from earlier work
TrkA [8] = biological target: T3, TrkA; test: Western blot of phosphorylated TrkA in PC-12 cells; type: cell-based; details: concurrently with NGF, statistically significant reduction at 1 μM
Experimental: (§2) The compounds were tested on PC-12 and MG87/TrkB/luc/Elk1 cells that express TrkA and TrkB, respectively. The cells were treated concurrently with NGF or BDNF and the compounds at three different concentrations. The levels of phosphorylated kinases were assessed using respective antibodies and further quantification of western blot signals. […] Additionally, in these two distinct cellular systems the activity of the Trk proteins may be incomparable due to their different concentration or interaction partners that can affect their behavior. For this reason, most probably there is no big selectivity of these compounds for the Trk kinases which is expected, as the ATP-binding pockets of Trk proteins are highly similar.
(§3) The PC-12 and MG87/TrkB/luc/Elk1 cells were plated on 6-well plates one day prior to the assay. Cells were treated for 10 minutes with compounds and simultaneously with 50 ng/ml of NGF (PC-12 cells) or BDNF (MG87/TrkB/luc/Elk1 cells). 0.1% of DMSO was used to determine the base level, 0.1% of DMSO concurrently with 50 ng/ml of NGF or BDNF served as a negative control and 0.1% of DMSO concurrently with 5 nM of AZ-23 as a positive control. Thereafter, western blotting was performed as described previously. Antibodies used included: rabbit anti-TrkA (#06-574; 1:1000) from Millipore; rabbit anti phospho-TrkA (#9141; 1:1000), rabbit anti phospho-TrkA/TrkB (#4619; 1:1000), rabbit anti-TrkB (#4603; 1:1000) and rabbit anti phospho-Akt (#4058; 1:3000) from Cell Signaling; mouse anti phosphor-Erk1/2 (#sc-7383; 1:1000) from Santa Cruz and anti-tubulinβ clone E7 (1:1000) from Prof. Michael Klymkovsky.

TrkB = biological target: T4, TrkB (Rattus norvegicus, UniProt Q63604); test: Western blot of phosphorylated TrkB in MG87/TrkB/luc/Elk1 cells; type: cell-based; details: concurrently with BDNF, statistically significant reduction at 1 μM
T4 construct: expressed in transfected cells; host or cells: MG87/TrkB/luc/Elk1
T4 sequence (Q63604 32-821): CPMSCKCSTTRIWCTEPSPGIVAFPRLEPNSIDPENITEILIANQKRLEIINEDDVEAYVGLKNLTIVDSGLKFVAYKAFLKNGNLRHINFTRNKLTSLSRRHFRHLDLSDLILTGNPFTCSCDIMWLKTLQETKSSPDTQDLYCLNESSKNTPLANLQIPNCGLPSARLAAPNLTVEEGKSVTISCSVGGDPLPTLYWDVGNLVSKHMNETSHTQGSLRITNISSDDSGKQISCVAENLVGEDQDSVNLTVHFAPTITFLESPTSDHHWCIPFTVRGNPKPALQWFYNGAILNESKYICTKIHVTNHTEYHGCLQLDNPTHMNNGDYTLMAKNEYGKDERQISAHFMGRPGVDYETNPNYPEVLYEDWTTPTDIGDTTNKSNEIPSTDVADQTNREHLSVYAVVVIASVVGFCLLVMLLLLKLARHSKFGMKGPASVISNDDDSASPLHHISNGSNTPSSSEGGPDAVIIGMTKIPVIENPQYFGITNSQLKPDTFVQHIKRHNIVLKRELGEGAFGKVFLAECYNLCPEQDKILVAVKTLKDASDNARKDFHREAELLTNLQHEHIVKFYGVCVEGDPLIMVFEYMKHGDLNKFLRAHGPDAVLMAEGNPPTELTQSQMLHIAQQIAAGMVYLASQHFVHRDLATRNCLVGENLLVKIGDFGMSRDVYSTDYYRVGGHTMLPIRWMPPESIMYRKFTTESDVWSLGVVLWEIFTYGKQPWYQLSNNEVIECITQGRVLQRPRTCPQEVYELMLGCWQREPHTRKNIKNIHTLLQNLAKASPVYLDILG
Experimental: as §2, §3

Akt and Erk1/2 = test: Western blot of phosphorylated downstream kinases; type: cell-based; details: compared to NGF or BDNF alone
Experimental: as §2, §3

[9] = biological target: 48 kinases representing the human kinome; test: In vitro kinase profiling, panel of 48 kinases (off-targets); type: biochemical; details: 100 nM
Description: as §1

In vivo toxicology study = details: C57/B16 mice
MG87/TrkB/luc/Elk1 cells = test: Cellular ATP content, CellTiter-Glo viability assay; type: cell-based; details: different concentrations, 24 h
Experimental: ATP was measured at least from 8 different wells per treatment condition.

Rat cortical cells = test: Viability of primary cortical neurons (neuron count); type: cell-based; details: 24 h, even at 1 μM concentration
Experimental: Neurons were grown in NEUROBASAL, a medium supplemented with B27 with phenol red on ploy-L-lysine-coated 35 mm glass bottomed dishes. Culture media and supplements were obtained from Invitrogen (Carlsbad, Calif.). For viability measurements neurons were first transfected with neuronal maker, pAAV-hSyn-DsRedExpress obtained from Addgene (Cambridge, Mass.) allowing better to assess the morphology of individual neurons. Briefly, the condition medium was replaced with 100 μL Opti-MEM 1 medium, containing 2% Lipofectamine 2000 and 1-2 μg of total DNA. Neurons were incubated for 3-4 hrs, after which fresh medium was added.

Aqueous solubility = type: physicochemical; details: room temperature

SMILES | remaining activity at 1 µM (TrkA [1]) | toxic or adverse effect on cells [2] | reported effect on Syk activity (Syk [3]) | residual activity of TrkA (Gao et al.) (TrkA [4]) | inhibition of Syk (Syk [5]) | remaining activity at 1 µM (Syk [5]; read-out: residual activity of Syk) | IC50 (TrkA [6]) | residual activity of Syk (Gao et al.) (Syk [7]) | phosphorylation of TrkA (TrkA [8]) | phosphorylation of TrkB (TrkB) | phosphorylation of downstream kinases Akt and Erk1/2 (Akt and Erk1/2) | kinases whose activity was reduced at least by 50% [9] | toxic effects in mice (In vivo toxicology study) | cell viability (cellular ATP content) (MG87/TrkB/luc/Elk1 cells) | number of viable neurons (Rat cortical cells) | solubility (Aqueous solubility; aqueous medium (not further specified)) | aqueous solubility (Aqueous solubility)
Cn1cc(/C=C2\C(=O)Nc3ccc(S(N)(=O)=O)cc32)c2ccccc21 [Compound 2a21] | 2% | no toxic or adverse effect | Syk inhibitors | 1% | failed to inhibit Syk at significant levels | 47% | ≤ 0.1 µM | 38% |  |  |  |  |  |  |  |  | 
COc1ccc2c(c1)c(/C=C1\C(=O)Nc3ccc(S(N)(=O)=O)cc31)cn2C [Compound 2a22] |  | no toxic or adverse effect |  |  |  |  |  |  | effectively inhibited | effectively inhibited | diminished |  |  |  |  |  | 
CN(C)S(=O)(=O)c1ccc2c(c1)/C(=C/c1cn(C)c3ccc(O)cc13)C(=O)N2 [Compound 3a25, (Z)-3-((5-hydroxy-1-methyl-1H-indol-3-yl)methylene)-N,N-dimethyl-2-oxindole-5-sulfonamide] |  | no toxic or adverse effect |  |  |  |  | ≤ 0.1 µM |  |  |  |  | only one kinase in addition to the Trk kinases |  |  |  |  | 
COc1ccc2c(c1)c(/C=C1\C(=O)Nc3ccc(S(=O)(=O)N(C)C)cc31)cn2C [Compound 2a25, (Z)-3-((5-methoxy-1-methyl-1H-indol-3-yl)methylene)-N,N-dimethyl-2-oxindole-5-sulfonamide] |  | no toxic or adverse effect | not to suppress Syk activity |  |  |  | ≤ 0.1 µM |  | effectively inhibited | effectively inhibited | diminished | only TrkA | no toxic effects | no effect | No reduction | 3.2 ± 0.1 µg/mL (≈ 7.78 µM) | 7.8 ± 0.2 µM (≈ 3.21 µg/mL)
COc1ccc2[nH]cc(/C=C3\C(=O)Nc4ccc(S(N)(=O)=O)cc43)c2c1 [Compound 2a23, (Z)-3-((5-methoxy-1H-indol-3-yl)methylene)-2-oxindole-5-sulfonamide] |  | no toxic or adverse effect | Syk inhibitors |  | failed to inhibit Syk at significant levels |  | ≤ 0.1 µM |  |  |  |  | only one kinase in addition to the Trk kinases |  |  |  |  | 
CNS(=O)(=O)c1ccc2c(c1)/C(=C/c1cn(C)c3ccc(OC)cc13)C(=O)N2 [Compound 4a22, (Z)-3-((5-methoxy-1-methyl-1H-indol-3-yl)methylene)-N-methyl-2-oxindole-5-sulfonamide] |  | no toxic or adverse effect |  |  |  |  |  |  | effectively inhibited | effectively inhibited | diminished |  |  |  |  |  | 
